Assay results as given in PubChem BioAssay AID504763 (Sanford-Burnham Center for Chemical Genomics, 2011).
Activity calls are given as the source filed them. How the calls were made is not given here.

These molecules were tested against Hexokinase-1 (Homo sapiens) (UniProt P19367) (assay: HK1 enzyme inhibitors – biochemical, selectivity assay for HKDC1 inhibitor project, dose response (AID 504763)). Details: biochemical inhibition.
Sequence of Hexokinase-1 (Homo sapiens) (P19367 whole entry, looked up): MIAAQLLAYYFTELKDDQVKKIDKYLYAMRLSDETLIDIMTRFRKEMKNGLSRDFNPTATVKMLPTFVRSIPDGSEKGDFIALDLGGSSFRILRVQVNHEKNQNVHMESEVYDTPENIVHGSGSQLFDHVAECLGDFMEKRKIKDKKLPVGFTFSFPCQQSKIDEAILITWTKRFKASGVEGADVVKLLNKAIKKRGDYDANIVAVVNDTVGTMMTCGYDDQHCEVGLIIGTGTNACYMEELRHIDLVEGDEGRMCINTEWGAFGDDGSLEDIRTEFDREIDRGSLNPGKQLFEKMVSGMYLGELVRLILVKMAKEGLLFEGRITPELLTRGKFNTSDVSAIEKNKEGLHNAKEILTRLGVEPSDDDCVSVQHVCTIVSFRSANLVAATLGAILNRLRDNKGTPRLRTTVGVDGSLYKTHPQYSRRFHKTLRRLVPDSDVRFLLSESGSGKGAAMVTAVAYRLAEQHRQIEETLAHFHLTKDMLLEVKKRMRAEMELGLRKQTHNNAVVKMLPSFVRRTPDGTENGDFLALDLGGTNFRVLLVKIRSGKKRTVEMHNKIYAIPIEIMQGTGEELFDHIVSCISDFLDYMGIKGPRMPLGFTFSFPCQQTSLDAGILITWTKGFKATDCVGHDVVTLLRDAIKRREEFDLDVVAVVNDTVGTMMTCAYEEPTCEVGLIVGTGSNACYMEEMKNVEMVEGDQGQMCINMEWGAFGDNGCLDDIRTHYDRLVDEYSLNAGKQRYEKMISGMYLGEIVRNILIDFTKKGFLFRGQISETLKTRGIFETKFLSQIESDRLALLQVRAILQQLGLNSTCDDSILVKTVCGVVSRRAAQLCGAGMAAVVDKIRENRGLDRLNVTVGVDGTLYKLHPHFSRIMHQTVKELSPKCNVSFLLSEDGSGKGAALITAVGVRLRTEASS

IC50 | Structure (SMILES)
2.15 µM | COCC(=O)OC1CCn2c1nc1c2C(=O)C(C)=C(NC(C)=O)C1=O (stereo not given)
> 80 µM (inactive) | C=CCn1c(SCC(=O)Nc2sc3c(c2C#N)CCC(C)C3)nc2cc(C(=O)O)ccc2c1=O (stereo not given)
18.5 µM | O=C1C(Cl)=C(NCCc2ccccc2)C(=O)c2ccccc21
inactive | N#C/C(=C(/O)CCl)c1nc2c(s1)CCc1ccccc1-2
> 80 µM (inactive) | O=[N+]([O-])c1ccc(NN=Cc2ccc(O)cc2O)nc1
inactive | Cc1cccc2c(N=NC(=O)c3ccc(NS(=O)(=O)c4cccs4)cc3)c(O)[nH]c12
> 80 µM (inactive) | O=C(CNC(=O)/C=C/c1ccco1)N=Nc1c(O)[nH]c2ccccc12
> 80 µM (inactive) | Oc1ccc(/C=N/Nc2ncc(Br)cn2)c(O)c1
> 80 µM (inactive) | COCc1cc(C2C(C(=O)c3ccco3)=C(O)C(=O)N2CCOCCO)ccc1O (stereo not given)
> 80 µM (inactive) | Cc1ccc(N=Cc2cc(Cc3ccccc3Cl)cc([N+](=O)[O-])c2O)c(O)c1
18 µM | COc1cc(/C=C(\C#N)c2nc3ccc(C)cc3[nH]2)cc([N+](=O)[O-])c1O
> 80 µM (inactive) | Cc1cccc(C)c1Nc1nnc(SCc2cn3cccc(C)c3n2)s1
inactive | CC(NC1=CC(=O)c2cccnc2C1=O)C(O)c1ccccc1 (stereo not given)
> 80 µM (inactive) | Cc1ccc(NC2c3ncccc3C(=O)N2c2ccccc2C)cc1C (stereo not given)
> 80 µM (inactive) | CC1COCC(C)N1C1=C(Cl)C(=O)c2ccccc2C1=O (stereo not given)
5.54 µM | O=C(NCCc1ccccc1)c1cnn2c(C(F)F)cc(C3CC3)nc12
> 80 µM (inactive) | COc1ccc(CN2C(=O)c3cccnc3C2O)cc1 (stereo not given)
6.47 µM | CCCc1nc2c(c(=O)c3ccccc3n2C)c(=O)n1-c1ccc(F)cc1
2.08 µM | Cc1nc2c(O)c3c(c(O)c2nc1C)C1C=CC3CC1
> 80 µM (inactive) | COC1(NS(=O)(=O)c2ccc(Br)cc2)C(C)=CC(=O)C=C1C
